The values below come from patent US10689415B2, “Conjugates of RGD peptides and (bacterio)chlorophyll photosensitizers” (YEDA RESEARCH AND DEVELOPMENT COMPANY LTD., priority 2006, dated 2020).

Data set [1] relates to tumor grafts of mouse CT26luc colon carcinoma. In words: Biodistribution (Pd by ICP-MS) in mice with CT26luc colon carcinoma grafts. The data set is classed as in vivo, CD1 nude male mice. The settings on record: 8 hours post injection. The procedure:
Anesthetized mice were i.v. injected (tail vein) with the different photosensitizer (pigment) conjugates (control group: untreated). The mice were sacrificed at indicated time points and samples of the indicated organs and tissues (blood, tumor, intestine, liver, spleen, kidneys, testies, heart, lung, brain, skin, muscle and fat) were placed in pre-weighted vials and immediately frozen and stored at −20° in the dark until analyzed. Three methods were used for sample preparation: (1) Each sample was thawed and homogenized in DDW (1:10 w/v). Aliquots of the homogenate (500 μl) were lyophilized in Eppendorf test tubes. […] Pd concentrations were determined by ICP-MS. According to method (3), the supernatants were diluted in methanol by a factor of two and the drug concentration was determined by fluorescence measurements (Varian-Cary Eclipse spectrofluorimeter, Palo Alto, Calif., USA) at 750 nm (peak values). Drug concentrations were interpolated from a fluorescence calibration curve, based on predetermined drug concentrations using absorption spectroscopy. […]
The conjugates of the invention are potential drug carriers. […] In order to quantify the conjugate levels in target tissues, Ion Coupled Plasma-Mass Spectroscopy (ICP-MS) was used for tracing the central M atom (e.g., Pd, Cu) in the target organ. […]

For data set [2], the target named is isolated αvβ3 integrin receptor (Homo sapiens, UniProt P05106+P06756). The data set is described as follows: Solid-phase receptor assay, Eu-RGD-4C binding competed by RGD-4C. The following applies: 100 μM of RGD-4C; highest attenuation. The procedure: The binding of Eu-RGD-4C to isolated αvβ3 integrin receptor was determined using time-resolved fluorometry. Each well of a microtiter plate (Nunc MaxiSorb) was coated with 50 μl of purified receptor (1 μg/ml in PBS) by shaking at 4° C. overnight. The receptor solution was then removed, and each well was blocked with 200 μl of milk (1% w/v milk powder in PBS, 1 hr, room temperature). The plate was then washed with 200 μl of PBS once, and incubated for 1 h at 37° C. with increasing concentrations of RGD-4C in the presence of constant amount of Eu-RGD-4C (10 million F.U./well). The ligand/competitor solution was removed and each well was washed three times with 200 μl PBS. Enhancement solution was added (200 μl/well) to release the chelated Eu. […] Under these experimental conditions, 100 μM of RGD-4C reduced by 50% Eu-RGD-4C binding to the isolated receptor. This value represents the highest attenuation of the Eu-RGD-4C binding, even at RGD-4C highest concentrations.

Data set [3] concerns the target αvβ5 and αvβ3 integrins. The following applies: read-out: affinity constant; reports by others; cited from earlier work.
The subject of data set [4] is H5V endothelial cells. In words: Cell detachment (rounding) assay, H5V. Type of data set: cell-based, mouse. The procedure: (§1) H5V cells were cultured as monolayers in 3-cm dish for 24-48 h, and further incubated for 1 h with 100 μM RGD-4C at 4° C. or 37° C. The cells were washed once and re-incubated for three hours with fresh culture medium at 37° C. In the same fashion, HUVEC were cultured as monolayers in 6-well plate pre-coated with gelatin for 48 h, and incubated for 1 h with 100 μM RGD-4C at 37° C. The cells were washed once and re-incubated for 24 h with fresh culture medium at 37° C. The morphological changes of the cells were documented using light microscopy.
The biological effect of RGD-4C binding was characterized in H5V cells and Human Umbilical Vein Endothelial Cells (HUVEC) using the cell-rounding assay described in Materials and Methods. The morphological changes of the cells were documented using light microscopy. […] This effect was reversible as the cells recovered following 3 h re-incubation with fresh culture medium (8% rounded cells in dishes with previous presence of RGD-4C versus 6% in the absence of RGD-4C).

Data set [5] has as its system HUVEC. The data set is described as follows: Cell detachment (rounding) assay, HUVEC. The settings on record: 100 μM RGD-4C; recovery after 24 h in fresh medium. The data set is classed as cell-based, human. The procedure: as §1
Data set [6] can be described thus: Solubilization for in vitro experiments (water solubility). Type of data set: physicochemical. The procedure:
Compound 24 was dissolved in 100% DMSO before use and diluted in saline to a final DMSO concentration of 5% v/v.

Data set [7] concerns H5V endothelial cells. The data set is described as follows: Phototoxicity assay (Neutral Red cell viability after illumination). The data set is classed as cell-based, mouse. The settings on record: for LD50: Table 3: 10 μM BSA in medium (90 min, 37° C.).
Experimental: The light source for in vitro studies was home-built 100-W halogen lamp equipped with a high-pass filter (>650 nm, Safelight filter 1A Eastman Kodak Co., Rochester, N.Y., USA) and a 4-cm water filter. The lamp was used to illuminate (20 mW/cm^2/10 min (12 J/cm^2)) the culture plates from the bottom at room temperature in a dark room.
To determine the pigment photodynamic efficacy in vitro under standard conditions, cells were cultured in 96-well plates and preincubated for 15 or 90 min at 37° C. or 4° C., according to the indicated experiment protocol, with 0-25 μM conjugated or non-conjugated photosensitizer in different media conditions (culture medium DMEM/F12; 10% FCS in medium or 10 μM BSA in medium) in the absence or presence of excess free peptide (100 fold up to 1 mM). The cells were washed and illuminated (20 mW/cm^2 for 10 min). Plates were placed back in the culture incubator for 24 h. Cell survival was determined using Neutral Red cell viability assay. Cell survival was calculated as the percent of the dye accumulated in the untreated controls. […] Three kinds of controls were used: (i) light control: cells illuminated in the absence of pigments; (ii) dark control: cells treated with pigments but kept in the dark; and (iii) untreated cells that were kept in the dark.
Following photosensitization and a 24-h incubation period (37° C.), cell survival was determined by Neutral Red (Fluka Chemie, Buchs, Switzerland) accumulation. After subtraction of assay blanks, net optical density (570 nm) was computed as the average value of triplicates determinations. Cell survival was calculated as the percent of the dye accumulated in the untreated controls.
H5V cells were incubated for 90 min at 37° C. with 0-25 μM of conjugate 23 or compound 10 in different media conditions, illuminated and their survival was determined using Neutral Red viability assay as described in Materials and Methods.
Targeted phototoxicity is defined as one inhibited by the free ligand. Thus, further experiments attempted to block phototoxicity by administration of the free cycloRGDfK, which competes for the cellular binding of conjugate 23. H5V cells were incubated for 90 min at 37° C. with 0-25 μM of compound 10 or conjugate 23 in different media (10% FCS in medium or 10 μM BSA in medium) in the absence or presence of free excess cycloRGDfK (100-fold up to 1 mM). The cells were illuminated and cell survival was determined using Neutral Red viability assay, as described above.
In order to test the endocytosis theory and since the endocytic process is time- and temperature-dependent, H5V cells were incubated at 37° C. and 4° C. for 15 min with 0-20 μM of conjugate 23 in medium containing 10% FCS, in the presence or absence of excess cycloRGDfK (100-fold up to 1 mM). Cells were illuminated and their survival was determined as described above.
The phototoxicity of conjugate 24 was determined by monitoring the survival of cultured H5V endothelial cells following PDT. H5V cells were incubated for 2 hours at 37° C. with 0-25 μM conjugate 24 in culture medium DMEM/F12 with 10% FCS. The cells were illuminated and their survival was determined as described above.
Cells were incubated for 90 min at 37° C. in the presence of 0-20 μM conjugate 11 or compound 8 in 10 μM BSA in medium, illuminated and their survival was determined as described above.
The test system of data set [8] is rat C6 glioma xenografts. The data set is described as follows: Whole-body NIR fluorescence imaging, rat C6 glioma xenografts. The data set is classed as in vivo, CD-1 nude male mice. The following applies: 200 nmol dose, 4 to 72 hours post injection. An excerpt:
The in Vivo Optical Imaging System (IVISR100/XFO-12, Xenogen Corp., Alameda, Calif., USA) was used to acquire fluorescent images of the RFP-expressing tumors, as well as photosensitizers associated with tissues and organs after their intravenous (i.v.) infusion to the tested animals. The field-of-view was 15 cm. Two images were taken; the first image is black and white, providing a photograph of the animal. The second image is a colored overlay of the emitted photon data, in the present case the NIR fluorescence of the compound (680-720 nm excitation filter and a 780-810 nm emission filter) or bioluminescence (560 nm) as described below. […]
Dynamic fluorescence images were acquired immediately following the injection of a conjugate of the invention and continued for approximately 2 hours. Fluorescence images were also obtained under isoflurane anesthesia for up to 72 hr after initial injection of the conjugate. […]
Dynamic fluorescence images were obtained from CD-1 nude male mice bearing rat C6 glioma xenografts. The fluorescence images were acquired using IVIS system as described in Materials and Methods. […]
Specific binding is defined as one inhibited by the unconjugated sensitizer. […] Fluorescence images of the blocked receptor xenografts with the same exposure time are illustrated in FIG. 19 on the same linear color scale to allow for a qualitative comparison. […]

The subject of data set [9] is CT26luc colon cancer. The data set is described as follows: In vivo PDT (VTP) of CT26luc colon cancer. Also on record: species or system CD-1 nude male mice. The following applies: i.v. injected and illuminated after 8 hours. How it is done: CD-1 nude male mice bearing the different tumor xenografts were anesthetized and 24 (5-24 mg/kg body weight) or 8 (9 mg/kg body weight) were i.v. injected via the tail vein. The tumors were trans-cutaneously illuminated after 3.5, 6, 8, 12 and 24 hours for 5-30 min at light doses of 30-360 J/cm^2. Intensity of illumination: 100-200 mW/cm^2. After treatment, the mice were returned to the cage. The mice were considered cured if tumor free for 90 days after treatment. Mice were euthanized when the tumor diameter reached 15 mm. […] (5) Mixture of 8 and cycloRGDfK: the mice were i.v. injected with mixture of 8 with cycloRGDfK and illuminated after indicated time point. (6) cycloRGDfK alone: the mice were i.v. injected with cycloRGDfK and illuminated after indicated time point. Images were taken at indicated time post PDT.
FIGS. 32A-32F show the therapeutic results of applying 15 mg/kg, 10 min illumination (60 J/cm^2), 8 hours post injection of conjugate 24 to mice bearing CT26luc tumors (bolded protocol in Table 5). 32A—conjugate 24 was i.v. injected 15 mg/kg, 10 min illumination (60 J/cm^2) 8 hours post injection; 32B—overlaid images taken after i.p. injection of luciferin to the mouse described in 32A, using the IVIS system. The first image is black and white, which gives the photograph of the animal. The second image is color overlay of the emitted photon data. […]

pKd: −log10 of the molar value. Where no end group is shown, it is not given here.

Sequence of isolated αvβ3 integrin receptor (P06756 31-889 limits assumed): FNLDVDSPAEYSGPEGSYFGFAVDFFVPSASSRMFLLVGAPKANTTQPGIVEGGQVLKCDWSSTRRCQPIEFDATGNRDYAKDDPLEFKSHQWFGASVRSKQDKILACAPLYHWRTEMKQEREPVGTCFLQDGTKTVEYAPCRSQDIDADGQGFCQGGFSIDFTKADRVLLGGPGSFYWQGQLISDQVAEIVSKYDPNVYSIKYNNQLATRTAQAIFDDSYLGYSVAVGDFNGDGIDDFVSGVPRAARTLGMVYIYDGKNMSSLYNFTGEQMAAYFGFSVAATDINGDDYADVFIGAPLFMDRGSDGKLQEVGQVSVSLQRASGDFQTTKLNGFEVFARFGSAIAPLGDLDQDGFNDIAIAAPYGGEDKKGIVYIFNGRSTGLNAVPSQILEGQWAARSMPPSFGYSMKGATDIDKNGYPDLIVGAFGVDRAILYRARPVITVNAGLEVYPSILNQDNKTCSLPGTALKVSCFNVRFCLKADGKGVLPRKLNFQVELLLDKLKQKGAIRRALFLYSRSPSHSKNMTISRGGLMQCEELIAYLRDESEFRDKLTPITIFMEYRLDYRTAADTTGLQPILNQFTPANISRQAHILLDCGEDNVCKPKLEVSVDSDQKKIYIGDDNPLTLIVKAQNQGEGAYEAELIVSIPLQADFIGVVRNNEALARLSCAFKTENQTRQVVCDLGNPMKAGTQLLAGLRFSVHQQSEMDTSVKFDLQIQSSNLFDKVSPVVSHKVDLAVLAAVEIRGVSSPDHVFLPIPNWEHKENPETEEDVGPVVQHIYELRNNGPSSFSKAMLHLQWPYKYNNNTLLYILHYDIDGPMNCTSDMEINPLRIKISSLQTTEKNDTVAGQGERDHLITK
Sequence of isolated αvβ3 integrin receptor (P06756 891-1048 limits assumed): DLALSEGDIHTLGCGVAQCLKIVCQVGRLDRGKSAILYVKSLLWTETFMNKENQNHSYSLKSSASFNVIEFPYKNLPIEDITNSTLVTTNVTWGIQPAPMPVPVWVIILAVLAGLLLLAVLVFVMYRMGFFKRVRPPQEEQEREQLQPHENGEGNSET
Sequence of isolated αvβ3 integrin receptor (P05106 27-788): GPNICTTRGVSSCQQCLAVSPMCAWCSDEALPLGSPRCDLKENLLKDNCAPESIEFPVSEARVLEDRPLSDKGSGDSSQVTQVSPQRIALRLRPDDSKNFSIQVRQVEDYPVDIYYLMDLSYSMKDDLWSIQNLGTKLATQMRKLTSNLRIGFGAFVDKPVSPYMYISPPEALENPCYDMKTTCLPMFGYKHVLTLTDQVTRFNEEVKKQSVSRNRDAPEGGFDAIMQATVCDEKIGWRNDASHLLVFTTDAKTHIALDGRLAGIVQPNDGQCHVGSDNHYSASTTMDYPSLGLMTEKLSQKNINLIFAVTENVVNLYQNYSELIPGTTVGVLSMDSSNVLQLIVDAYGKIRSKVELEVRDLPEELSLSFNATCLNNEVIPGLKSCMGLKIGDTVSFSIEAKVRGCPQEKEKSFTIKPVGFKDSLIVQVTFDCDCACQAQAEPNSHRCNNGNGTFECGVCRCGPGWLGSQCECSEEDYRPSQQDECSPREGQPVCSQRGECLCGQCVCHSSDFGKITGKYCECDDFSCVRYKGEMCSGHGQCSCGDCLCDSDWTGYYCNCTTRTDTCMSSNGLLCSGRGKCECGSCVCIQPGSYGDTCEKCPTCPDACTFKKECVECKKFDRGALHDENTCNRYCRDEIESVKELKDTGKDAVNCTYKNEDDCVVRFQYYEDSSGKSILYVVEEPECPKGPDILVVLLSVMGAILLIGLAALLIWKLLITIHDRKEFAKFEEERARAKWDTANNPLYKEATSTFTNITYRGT

As for “Palladium 3^1-oxo-15-methoxycarbonylmethyl-Rhodobacteriochlorin 13^1-(2-sulfoethyl)amide-17^3-(cycloRADfK)amide potassium salt [Conjugate 42]”, the “concentrations in the tumor tissue and blood” value in [1] was “quite the same”.

As to “the cyclic nonapeptide CDCRGDCFC-NH2 (disulfide (positions not given here)) [RGD-4C]”, in [2], the “reduction of Eu-RGD-4C binding to the isolated receptor” value is 50%. In addition, in data set [3], the pKd is about 7.00. In addition, the “rounded cells (cell detachment from the dish)” value in data set [4] (100 μM RGD-4C, n=200) worked out at 99%. Besides, the “rounded cells after 3 h re-incubation with fresh culture medium” value in data set [4] (previous presence of RGD-4C, 37° C.) was 8%. Also, the HUVEC detachment result in data set [5] is on record as “induced HUVEC detachment from the dish in a reversible manner”. In addition, the water solubility result in [6] is on record as “Water insoluble”.

Regarding “Palladium 3^1-oxo-15-methoxycarbonylmethyl-Rhodobacteriochlorin 13^1-(2-sulfoethyl)amide potassium salt [Compound 8, reference compound]”, the phototoxic effects entry in data set [7] (90 min, 37° C., 10 μM BSA in medium, 0-20 μM) is “light- and drug concentration-dependent”. Moreover, the figures for the LD50 in [7] and in data set [7] (with free peptide excess (RGD-4C 1 mM)) were 1.8 to 2 µM and 2 µM, respectively. Besides, the whole-body fluorescence distribution result in [8] was “no specific signal could be seen”. Moreover, the “PDT effect of controls” value in data set [9] is listed as “no PDT effect”. Also, the water solubility result in data set [6] is reported as “Water-soluble”.
